Measurements reported in patent US7855192B2, “Macrolactams by engineered biosynthesis” (Kosan Biosciences, Inc., priority 2007, dated 2010).
Where two headings read alike, the source gives them in different places.

What was measured:
SKOV3 = assay: cells; conditions: Homo sapiens, SK-OV-3, read-out: Inhibitory activity against cancer cells IC50
Method: (§1) The ability of the macrolactams of this invention to inhibit the growth of cancer cells was evaluated using the procedure of Patel, supra. […] SKOV3 is a human ovarian cancer cell line. […] MV-4-11 is yet another human leukemia cell line (acute myeloid leukemia or AML). […] Where an assay was performed multiple times, the range of values measured is given.

SKBr3 = assay: cells; conditions: Homo sapiens
Method: as §1

BT-474 = assay: cells; conditions: Homo sapiens, BT-474, read-out: Inhibitory activity against cancer cells IC50
Method: as §1

RPMI-8226 = assay: cells; conditions: Homo sapiens, RPMI-8226, read-out: Inhibitory activity against cancer cells IC50
Method: as §1

K-562 = assay: cells; conditions: Homo sapiens, K562, read-out: Inhibitory activity against cancer cells IC50
Method: as §1

HCT-116 = assay: cells; conditions: Homo sapiens, HCT-116, read-out: Inhibitory activity against cancer cells IC50
Method: as §1

MX-1 = assay: cells; conditions: Homo sapiens, MX1, read-out: Inhibitory activity against cancer cells IC50
Method: as §1

NCI-ADR = assay: cells; conditions: Homo sapiens, NCI/ADR-RES, read-out: Inhibitory activity against cancer cells IC50
Method: as §1

NCI-H596 = assay: cells; conditions: Homo sapiens, NCI-H596, read-out: Inhibitory Concentration IC50, NQO1 deficient cancer cells
Method: as §1
(§2) As noted above, geldanamycin derivatives in the quinone oxidation state are dependent on the enzyme NQO1 to reduce them to their hydroquinone derivatives for enhanced activity as Hsp90 inhibitors. However, some cancer cells are deficient in NQO1 activity and thus unable to effect the quinone-to-hydroquinone conversion.

MDA-468 = assay: cells; conditions: read-out: Inhibitory Concentration IC50, NQO1 deficient cancer cells
Method: as §1, §2

Hsp70 = assay: Induction of Hsp70 in SKBr3 cells as marker of Hsp90 inhibition; assay type: cell-based, human; conditions: SKBr3 cells continuously exposed to 1 μM test compound
Source text: The activity of macrolactams of this invention as Hsp90 inhibitors was confirmed by monitoring the effect of exposure to them on an Hsp90 client protein and a protein induced upon Hsp90 inhibition. […]. The procedure used was that described in Munster et al., Cancer Research 2002, 62, 3132-3137.
[…]. Heat shock protein-70 (“Hsp70”), another protein that performs a chaperone function, is a protein that is induced upon inhibition of Hsp90 (Brodsky & Chiosis, Curr. Topics Med. Chem. 2006, 6 (11), 1215-1225). Thus, the induction of Hsp70 can be used as a marker for the inhibition of Hsp90. […]. GAPDH is an enzyme involved in glycolysis and is expressed constitutively in all cells and is a marker of choice as a loading control in Western Blotting experiments.)

MCF-7 = assay: cells; conditions: Homo sapiens
Method: as §1

[1] = system: SKBr3 and MCF7 cancer cells; conditions: with versus without dicoumarol (NQO1 inhibitor)
HT-29 = assay: cells; conditions: Homo sapiens, HT-29, read-out: Inhibitory activity against cancer cells IC50
Method: as §1

MV-4-11 = assay: cells; conditions: Homo sapiens, MV4-11, read-out: Inhibitory activity against cancer cells IC50
Method: as §1

COLO 205 = assay: cells; conditions: Homo sapiens, COLO 205, read-out: Inhibitory activity against cancer cells IC50
Method: as §1

[2] = SK-BR-3, read-out: Inhibitory activity against cancer cells IC50
[3] = SK-BR-3, read-out: Inhibitory Activity IC50, no dicoumarol added
[4] = MCF7, read-out: Inhibitory activity against cancer cells IC50

Compound | IC50 (SKOV3) [nM] | IC50 (SKBr3; [2]) [nM] | IC50 (BT-474) [nM] | IC50 (RPMI-8226) [nM] | IC50 (K-562) [nM] | IC50 (HCT-116) [nM] | IC50 (MX-1) [nM] | IC50 (NCI-ADR) [nM] | IC50 (NCI-H596) [nM] | IC50 (MDA-468) [nM] | Induction of Hsp70, gel picture FIG. 5 (Hsp70) | IC50 (SKBr3; [3]) [nM] | IC50 (MCF-7; [4]) [nM] | Change of Hsp90 inhibitory activity in the presence of dicoumarol [1] | IC50 (SKBr3; SK-BR-3, read-out: Inhibitory Activity IC50, dicoumarol added) [nM] | IC50 (HT-29) [nM] | IC50 (MCF-7; MCF7, read-out: Inhibitory Activity IC50, dicoumarol added) [nM] | IC50 (MCF-7; MCF7, read-out: Inhibitory Activity IC50, no dicoumarol added) [nM] | IC50 (MV-4-11) [nM] | IC50 (COLO 205) [nM]
CO[C@H]1/C=C\C=C(/C)C(=O)Nc2cc(Cl)c(O)c(c2O)C[C@@H](C)C[C@H](OC)[C@H](O)[C@@H](C)/C=C(\C)[C@@H]1OC(N)=O [IV-b] | 340 to 360 | 400 to 444 | 140 | 240 | 1400 | 840 | 440 | 10000 | 815 | 450 |  |  |  |  |  |  |  |  |  | 
C=CCNC1=C2C[C@@H](C)C[C@H](OC)[C@H](O)[C@@H](C)/C=C(\C)[C@H](OC(N)=O)[C@@H](OC)/C=C\C=C(/C)C(=O)NC(=CC1=O)C2=O [Compound 17-AAG, 17-allylamino-17-demethoxygeldanamycin, reference compound] |  |  |  |  |  |  |  |  |  |  | Hsp70 was induced |  |  |  |  |  |  |  |  | 
CO[C@H]1/C=C\C=C(/C)C(=O)Nc2ccc(O)c(c2)C[C@@H](C)C[C@H](OC)[C@H](O)[C@@H](C)/C=C(\C)[C@@H]1OC(N)=O [IV-a] |  | 90 |  |  |  | 177 |  |  |  |  |  |  |  |  |  |  |  |  |  | 
CO[C@H]1C[C@H](C)Cc2cc(cc(Cl)c2O)NC(=O)/C(C)=C/CC[C@H](OC)[C@@H](OC(N)=O)/C(C)=C/[C@H](C)[C@H]1O [III-a] | 102 to 170 | 36 to 145 | 57 | 42 | 74 |  | 42 | 640 to 1400 |  | 90 | Hsp70 was induced | 39 | 53 to 60 | remained substantially unchanged |  |  |  |  |  | 
COC1CC/C=C(\C)C(=O)Nc2cc(F)c(O)c(c2)C[C@@H](C)C[C@H](OC)[C@H](O)[C@@H](C)/C=C(\C)[C@@H]1OC(N)=O (stereo partly drawn) [III-d] | 230 to 237 | 34 to 80 | 80 | 66 | 290 | 280 to 290 | 66 | 3200 to 5000 | 310 | 100 | Hsp70 was induced | 42 | 73 to 160 | remained substantially unchanged | 69 | 110 | 161 | 112 | 31 to 32 | 38
CO[C@H]1C[C@H](C)Cc2cccc(c2)NC(=O)/C(C)=C/CC[C@H](OC)[C@@H](OC(N)=O)/C(C)=C/[C@H](C)[C@H]1O [III-h] | 318 | 90 to 110 |  |  |  | 240 to 242 |  |  |  |  |  |  | 138 to 140 |  |  | 220 |  |  |  | 180
CO[C@H]1C[C@H](C)Cc2cc(ccc2O)NC(=O)/C(C)=C/CC[C@H](OC)[C@@H](OC(N)=O)/C(C)=C/[C@H](C)[C@H]1O [III-i] |  | 830 |  |  |  | 1100 |  |  |  |  |  |  | 600 |  |  |  |  |  |  | 
